Consider five molecules from patent publication US20230210854A1, “MONO- AND COMBINATION THERAPIES” (Recurium IP Holdings, LLC, priority 2020, published 2023).

One experiment has as its system OVCAR3 xenograft. The experiment is described as follows: OVCAR3 ovarian tumor model, Doxorubicin combination. Particulars: OVCAR3, 2.5 mg/kg i.p. once per week for 4 weeks, single agent. In kind it is in vivo, BABL/c nude mice.
The next experiment relates to x2-MDA-MB-468 tumor. The experiment is described as follows: x2 MDA-MB-468 TNBC tumor model, Niraparib combination. Format: in vivo, mouse. The following applies: x2-MDA-MB-468, 45 mg/kg orally, 7 days on, 7 days off for 4 cycles.
Another experiment concerns TOV21G xenograft. The experiment is described as follows: TOV21G xenograft model. Format: in vivo, BALB/c nude mice. The following applies: 50 mg/kg i.p. once per week. Here is the method:
TOV21G xenograft model was established by the inoculation of 200 µL of TOV-21G tumor cell suspension (5×10^6 cells/mouse, with 50% Matrigel) subcutaneously into the right subaxillary of BALB/c nude mice. When tumors reached approximately 100 to 150 mm^3, tumor bearing animals were randomly distributed into treatment groups of 10 animals each. Animals were orally dosed with vehicle or Compound (1A) at 60 mg/kg for 19 days, carboplatin at 50 mg/kg by the i.p. injection once per week, and Compound (1A) treatment in combination with carboplatin. Tumor volumes were evaluated twice per week to calculate tumor volume over time, and the mice were weighed twice per week as a surrogate for signs of toxicity.

Another experiment has as its system A427 cells. The experiment is described as follows: A427 cell growth study (DNA content, Hoechst 33258). In kind it is cell-based. The following applies: suboptimal doses, single agent, Day 6. Here is the method: Experiment method: 3000 of A427 cells were seeded in 96-well pates and allowed to adhere overnight. Treatments with Compound (1A) and/or Triapine were added the next day. Cells were harvested at Day 6 and were assayed for DNA content using Hoechst 33258. Fluorescence intensity was read at excitation 346 nm and emission 460 nm using a plate reader. Data shown in FIG. 27 are representative of three independent experiments (raw fluorescence reading).

Another experiment relates to MOLP-8 cells. The experiment is described as follows: CellTiter-Glo cell proliferation assay, MOLP-8. Format: cell-based. The following applies: Homo sapiens; MOLP-8, 2 nM, 72 hrs. The procedure:
(§1) Cell proliferation was measured using the CellTiter-Glo® Luminescent Cell Viability Assay. The assay involved the addition of a single reagent (CellTiter-Glo® Reagent) directly to cells cultured in serum-supplemented medium. KMS-12-BM, OPM-2 and MOLP8 cells were cultured according to DSMZ recommendations and were seeded at 20,000 cells per well. Each compound evaluated was prepared as a DMSO stock solution (10 mM). Compounds were tested in triplicate on each plate, with a single concentration indicated in each table. Compound treatment (10.0 µL) was added to the cells from the 10x concentration of each compound. Plates were then incubated at 37° C., 5% CO2. After 72 hrs, cell plates were equilibrated at room temperature (rt) for approximately 30 mins. An equi-volume amount of CellTiter-Glo® Reagent (100 µL) was added to each well. Plates were mixed for 2 mins on an orbital shaker to induce cell lysis and then incubated at rt for 10 mins to stabilize the luminescent signal. Luminescence was recorded using a SpectraMAX, M5e plate reader according to CellTiter-Glo protocol.

For a further experiment, the system named is KMS-12-BM cells. The experiment is described as follows: CellTiter-Glo cell proliferation assay, KMS-12-BM. Format: cell-based. The following applies: Homo sapiens, 90 nM, 72 hrs. Here is the method: as §1
A further experiment deals with OPM-2 cells. The experiment is described as follows: CellTiter-Glo cell proliferation assay, OPM-2. The following applies: Homo sapiens; OPM-2, 50 nM, 72 hrs. Format: cell-based. Here is the method: as §1

Protocol for OVCAR3 xenograft: OVCAR3 xenograft model was established by the inoculation of 200 µL of OVCAR3 tumor cell suspension (1×10^7 cells/mouse, with 50% Matrigel) subcutaneously into the right subaxillary of BABL/c nude mice. When tumors reached approximately 180.8 mm^3, tumor bearing animals were randomly distributed into treatment groups of 10 animals each. […] Tumor volumes were evaluated twice per week to calculate tumor volume over time, and the mice were weighed twice per week as a surrogate for signs of toxicity.
Protocol for x2-MDA-MB-468 tumor: The x2-MDA-MB-468 cells (ATCC-Chempartner) were maintained in vitro as a monolayer culture in DMEM medium added with 10% FBS, 100 U/mL penicillin and 100 µg/mL streptomycin at 37° C. in an atmosphere of 5% CO2 in air. Each mouse was implanted subcutaneously on right flank with 1 × 10^7 x2-MDA-MD-468 cells in 0.2 mL mixture of RPMI1640 medium with BD Matrigel (base medium: Matrigel=100 uL:100 uL) for tumor development. […] Tumor volumes were evaluated twice per week to calculate tumor volume over time, and the mice were weighed twice per week as a surrogate for signs of toxicity.

As for `COc1cccc2c1C(=O)c1c(O)c3c(c(O)c1C2=O)C[C@@](O)(C(=O)CO)C[C@@H]3O[C@H]1C[C@H](N)[C@H](O)[C@H](C)O1` [doxorubicin], the TGI with OVCAR3 xenograft was 43.11%.

With `NC(=O)c1cccc2cn(-c3ccc([C@@H]4CCCNC4)cc3)nc12` [niraparib], the TGI in the experiment with x2-MDA-MB-468 tumor was determined as 47.7%.

Turning to `N.N.O=C([O-])C1(C(=O)[O-])CCC1.[Pt+2]` [carboplatin], the inhibition of tumour growth (TGI) with TOV21G xenograft is recorded as 89.75%.

For the molecule `NC(=S)N/N=C/c1ncccc1N` [Triapine], in the experiment with A427 cells, the A427 cell growth result is “do not inhibit A427 cell growth”.

The molecule `Nc1ccn([C@@H]2O[C@H](CO)[C@@H](O)C2(F)F)c(=O)n1` [Gemcitabine] had an inhibition at 0.002 µM in the experiment on MOLP-8 cells of 22%. Further, testing at 0.09 µM with KMS-12-BM cells gave an inhibition of 38%. The same molecule gave an inhibition at 0.05 µM in the experiment with OPM-2 cells of 35.1%.
